PMC6979384, “Characterization of the plant homeodomain (PHD) reader family for their histone tail interactions” (Epigenetics & Chromatin, 2020)

Experiments:
Test in all cases: Histone peptide microarray
Type in all cases: binding, human
KDM4C (TTP) = details: KDM4C (TTP), GST-tagged; arrays performed twice, n of 4
From the text: (§1) To more comprehensively define the histone interactions of the 31 PHD readers identified from the domain microarray analyses, we probed each on an alternate microarray platform containing a library of 293 synthetic histone peptides with single or combinatorial PTMs (Additional file 2: Figure S4 and Additional file 3: Table S2).
(§2) The 31 GST-tagged PHD readers identified in the PHD finger domain array were expressed and purified as previously. Histone peptide arrays and peptide pulldown assays were conducted as recently described (specifically, the optimized protocol from Petell et al. for the former).
(§3) Supplementary file 13072_2020_328_MOESM3_ESM.xlsx: Additional file 3: Table S2. […] Excel Tab Peptide List is a compiled list of the entire 293 histone peptide library with amino acid sequence ranges. […] Each number corresponds to the peptide number designated in Peptide List. Excel Tab Average Signals is a compiled set of binding data: chromatin reader at 0.5 μM vs. entire 293 peptide library. Data is presented as the average and standard deviation of 4 replicates. The average signals are colored to indicate signal intensity with green being strong and white being weak/low. […] Key: red= stronger relative binding; blue = weaker relative binding. Excel Tab Array info summary is a table summarizing the domains, sequence coverage, array signal range, and noise for each of the GST-tagged readers assayed on the peptide microarrays.

PHF8 = details: PHF8, GST-tagged; arrays performed twice, n of 4
From the text: as §1, §2, §3

DPF2 (PPC2W2) = details: DPF2 (PPC2W2), GST-tagged; arrays performed twice, n of 4
From the text: as §1, §2, §3

MLL5 = details: MLL5, GST-tagged; arrays performed twice, n of 4
From the text: as §1, §2, §3

MORC3 (CW) = details: MORC3 (CW), GST-tagged; arrays performed twice, n of 4
From the text: as §1, §2, §3

AIRE (PP) = details: AIRE (PP), GST-tagged; arrays performed twice, n of 4
From the text: as §1, §2, §3

TRIM66 (PB) = details: TRIM66 (PB), GST-tagged; arrays performed twice, n of 4
From the text: as §1, §2, §3

CHD5 (PCC) = details: CHD5 (PCC), GST-tagged; arrays performed twice, n of 4
From the text: as §1, §2, §3

CHD5 (PPCC) = details: CHD5 (PPCC), GST-tagged; arrays performed twice, n of 4
From the text: as §1, §2, §3

ING3 = details: ING3, GST-tagged; arrays performed twice, n of 4
From the text: as §1, §2, §3

PHF23 = details: PHF23, GST-tagged; arrays performed twice, n of 4
From the text: as §1, §2, §3

ING4 = details: ING4, GST-tagged; arrays performed twice, n of 4
From the text: as §1, §2, §3

DIDO1 = details: DIDO1, GST-tagged; arrays performed twice, n of 4
From the text: as §1, §2, §3

PHF21A = details: PHF21A, GST-tagged; arrays performed twice, n of 4
From the text: as §1, §2, §3

CHD4 (PPCC) = details: CHD4 (PPCC), GST-tagged; arrays performed twice, n of 4
From the text: as §1, §2, §3

KDM7A = details: KDM7A, GST-tagged; arrays performed twice, n of 4
From the text: as §1, §2, §3

ING1 = details: ING1, GST-tagged; arrays performed twice, n of 4
From the text: as §1, §2, §3

ING2 = details: ING2, GST-tagged; arrays performed twice, n of 4
From the text: as §1, §2, §3

PHF2 = details: PHF2, GST-tagged; arrays performed twice, n of 4
From the text: as §1, §2, §3

KDM5B (3) = details: KDM5B (3), GST-tagged; arrays performed twice, n of 4
From the text: as §1, §2, §3

PHRF1 (RP) = details: PHRF1 (RP), GST-tagged; arrays performed twice, n of 4
From the text: as §1, §2, §3

KDM5A (1) = details: KDM5A (1), GST-tagged; arrays performed twice, n of 4
From the text: as §1, §2, §3

RAG2 = details: RAG2, GST-tagged; arrays performed twice, n of 4
From the text: as §1, §2, §3

TAF3 = details: TAF3, GST-tagged; arrays performed twice, n of 4
From the text: as §1, §2, §3

ING5 = details: ING5, GST-tagged; arrays performed twice, n of 4
From the text: as §1, §2, §3

BAZ2B = details: BAZ2B, GST-tagged; arrays performed twice, n of 4
From the text: as §1, §2, §3

KDM5A (3) = details: KDM5A (3), GST-tagged; arrays performed twice, n of 4
From the text: as §1, §2, §3

BPTF (PB) = details: BPTF (PB), GST-tagged; arrays performed twice, n of 4
From the text: as §1, §2, §3

PHF13 = details: PHF13, GST-tagged; arrays performed twice, n of 4
From the text: as §1, §2, §3

SP140L = details: SP140L, GST-tagged; arrays performed twice, n of 4
From the text: as §1, §2, §3

Row | Substance | Array Heatmap value (peptide array binding signal) (KDM4C (TTP)) | Array Heatmap value (peptide array binding signal) (PHF8) | Array Heatmap value (peptide array binding signal) (DPF2 (PPC2W2)) | Array Heatmap value (peptide array binding signal) (MLL5) | Array Heatmap value (peptide array binding signal) (MORC3 (CW)) | Array Heatmap value (peptide array binding signal) (AIRE (PP)) | Array Heatmap value (peptide array binding signal) (TRIM66 (PB)) | Array Heatmap value (peptide array binding signal) (CHD5 (PCC)) | Array Heatmap value (peptide array binding signal) (CHD5 (PPCC)) | Array Heatmap value (peptide array binding signal) (ING3) | Array Heatmap value (peptide array binding signal) (PHF23) | Array Heatmap value (peptide array binding signal) (ING4) | Array Heatmap value (peptide array binding signal) (DIDO1) | Array Heatmap value (peptide array binding signal) (PHF21A) | Array Heatmap value (peptide array binding signal) (CHD4 (PPCC)) | Array Heatmap value (peptide array binding signal) (KDM7A) | Array Heatmap value (peptide array binding signal) (ING1) | Array Heatmap value (peptide array binding signal) (ING2) | Array Heatmap value (peptide array binding signal) (PHF2) | Array Heatmap value (peptide array binding signal) (KDM5B (3)) | also measured
1 | H4K8ac + K12ac: H4 1-23 | 0.5553 | 0.3425 | 0.6914 | 0.5505 | 0.3777 | 0.5703 | 0.5841 | 0.8072 | 0.5916 | 0.4849 | 0.5272 | 0.4864 | 0.6459 | 0.4992 | 0.5759 | 0.4671 | 0.5248 | 0.5831 | 0.4562 | 0.5016 | Array Heatmap value (peptide array binding signal) (PHRF1 (RP)): 0.4073; Array Heatmap value (peptide array binding signal) (KDM5A (1)): 0.4987; Array Heatmap value (peptide array binding signal) (RAG2): 0.2531; Array Heatmap value (peptide array binding signal) (TAF3): 0.2763; Array Heatmap value (peptide array binding signal) (ING5): 0.3813; Array Heatmap value (peptide array binding signal) (BAZ2B): 0.5085; Array Heatmap value (peptide array binding signal) (KDM5A (3)): 0.4276; Array Heatmap value (peptide array binding signal) (BPTF (PB)): 0.3598; Array Heatmap value (peptide array binding signal) (PHF13): 0.6286; Array Heatmap value (peptide array binding signal) (SP140L): 0.3826
2 | H4K8ac + K20ac: H4 1-23 | 0.5368 | 0.3864 | 0.6725 | 0.5364 | 0.3621 | 0.5419 | 0.5664 | 0.8384 | 0.5684 | 0.4639 | 0.5223 | 0.4785 | 0.6199 | 0.4807 | 0.5794 | 0.4148 | 0.5081 | 0.5825 | 0.4411 | 0.4924 | Array Heatmap value (peptide array binding signal) (PHRF1 (RP)): 0.4283; Array Heatmap value (peptide array binding signal) (KDM5A (1)): 0.512; Array Heatmap value (peptide array binding signal) (RAG2): 0.2452; Array Heatmap value (peptide array binding signal) (TAF3): 0.2852; Array Heatmap value (peptide array binding signal) (ING5): 0.3709; Array Heatmap value (peptide array binding signal) (BAZ2B): 0.4848; Array Heatmap value (peptide array binding signal) (KDM5A (3)): 0.4422; Array Heatmap value (peptide array binding signal) (BPTF (PB)): 0.3587; Array Heatmap value (peptide array binding signal) (PHF13): 0.5975; Array Heatmap value (peptide array binding signal) (SP140L): 0.3646
3 | H4K16ac + K20ac: H4 1-23 | 0.4892 | 0.3492 | 0.6637 | 0.5457 | 0.3738 | 0.5176 | 0.6284 | 0.7957 | 0.5492 | 0.4609 | 0.5182 | 0.47 | 0.6429 | 0.4767 | 0.5676 | 0.3784 | 0.529 | 0.5955 | 0.4717 | 0.4989 | Array Heatmap value (peptide array binding signal) (PHRF1 (RP)): 0.4351; Array Heatmap value (peptide array binding signal) (KDM5A (1)): 0.4687; Array Heatmap value (peptide array binding signal) (RAG2): 0.2369; Array Heatmap value (peptide array binding signal) (TAF3): 0.2987; Array Heatmap value (peptide array binding signal) (ING5): 0.3611; Array Heatmap value (peptide array binding signal) (BAZ2B): 0.4551; Array Heatmap value (peptide array binding signal) (KDM5A (3)): 0.425; Array Heatmap value (peptide array binding signal) (BPTF (PB)): 0.3565; Array Heatmap value (peptide array binding signal) (PHF13): 0.6126; Array Heatmap value (peptide array binding signal) (SP140L): 0.3563
4 | H4S1p + K5ac + K8ac + K12ac + K16ac: H4 1-23 | 0.5634 | 0.3922 | 0.7325 | 0.5849 | 0.4113 | 0.484 | 0.6554 | 0.835 | 0.6446 | 0.5554 | 0.5865 | 0.5155 | 0.7637 | 0.5171 | 0.615 | 0.3878 | 0.5918 | 0.6187 | 0.5298 | 0.545 | Array Heatmap value (peptide array binding signal) (PHRF1 (RP)): 0.5208; Array Heatmap value (peptide array binding signal) (KDM5A (1)): 0.5302; Array Heatmap value (peptide array binding signal) (RAG2): 0.2856; Array Heatmap value (peptide array binding signal) (TAF3): 0.311; Array Heatmap value (peptide array binding signal) (ING5): 0.4228; Array Heatmap value (peptide array binding signal) (BAZ2B): 0.5342; Array Heatmap value (peptide array binding signal) (KDM5A (3)): 0.4753; Array Heatmap value (peptide array binding signal) (BPTF (PB)): 0.3984; Array Heatmap value (peptide array binding signal) (PHF13): 0.677; Array Heatmap value (peptide array binding signal) (SP140L): 0.3938
